The values below come from the supplement of paper PMC10290057.

Test [1] deals with HCT116. Kind of test: AC50 cell viability (CellTiter-Glo); higher = less potent. As to conditions: 48 h. A general note: ATP-based viability assays read luminescence as a measure of living cells.
Test [2] deals with HCT116. As to the kind of experiment: efficacy (fitted maximal change in viability relative to DMSO control); higher = less cytotoxic (negative = loss of viability). As to conditions: 48 h.

Where a name gives a salt, the structure may show the parent alone.
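For AC50 cell viability (CellTiter-Glo) in this document: HCT116 colorectal carcinoma cells screened at five concentrations per compound, luminescent viability scaled between DMSO wells and empty wells on each plate, curves fitted per compound.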
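For efficacy (fitted maximal change in viability relative to DMSO control) in this document: Luminescence-based viability readout, five doses per compound, normalized against on-plate DMSO and empty-well controls, followed by dose-response curve fitting for every drug.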

As to `CN(C)[S+](=O)([O-])c1ccc2c(c1)C(=Cc1cc3c([nH]1)CCCC3)C(=O)N2` [SU-6656], the AC50 cell viability in the test on HCT116 [1] came to 0.118 µM. For the same molecule, the efficacy in the test with HCT116 [2] is -34.2%.

For the molecule `Cc1[nH]c(/C=C2\C(=O)Nc3ccc([S+](=O)([O-])N(C)c4cccc(Cl)c4)cc32)c(C)c1C(=O)N1CCN(C)CC1` [SU-MI-2], the AC50 cell viability in the test with HCT116 [1] stood at 14.8 µM. In the test on HCT116 [2], the efficacy is -113%.

`CCC(C1CCC(C)C(O1)C(C)C(O)C(C)C(=O)C(CC)C2OC\3(O[C@]4(CC[C@@](C)(O4)C5CC[C@@](O)(CC)C(C)O5)C(O)\C=C3)C(C)CC2C)C([O-])=O` (stereo not given in full) [Salinomycin] yielded an AC50 cell viability in the test on HCT116 [1] of 13.2 µM. For the same molecule, the efficacy in the test with HCT116 [2] is -98.3%.

In turn, `CN1CCN(CCOc2cc(OC3CCOCC3)c3c(Nc4c(Cl)ccc5c4OCO5)ncnc3c2)CC1` [Saracatinib] had an AC50 cell viability in the test on HCT116 [1] of 18.6 µM. Also, the efficacy in the test with HCT116 [2] is -101%.

On to `[O-][n+]1cccc(-c2nc3c(Cl)cccc3cc2[C@@H](Nc2ncnc3cccnc23)C(F)(F)F)c1` [Seletalisib], for which the AC50 cell viability in the test with HCT116 [1] came out at 18.6 µM. For the same molecule, the efficacy in the test on HCT116 [2] was -49.3%.

Turning to `CC[C@H](CO)Nc1nc(NCc2ccccc2)c2ncn(C(C)C)c2n1` [Seliciclib], the AC50 cell viability with HCT116 [1] came out at 10.5 µM. In addition, the efficacy in the test with HCT116 [2] is -84.6%.

`O=C(/C=C\n1cnc(-c2cc(C(F)(F)F)cc(C(F)(F)F)c2)n1)NNc1cnccn1` [Selinexor]: the AC50 cell viability with HCT116 [1] was determined as 0.372 µM. In addition, the efficacy in the test on HCT116 [2] is -93.1%.

`Cc1cc(F)c(C(=O)Nc2cccc(-c3nncn3C(C)C)n2)cc1-n1cnc(C2CC2)c1` [Selonsertib]: the AC50 cell viability with HCT116 [1] is 16.6 µM. In the test on HCT116 [2], the efficacy was -73.8%.

In the test with HCT116 [1], `Cn1cnc2c(F)c(Nc3ccc(Br)cc3Cl)c(C(=O)NOCCO)cc21` [Selumetinib] returned an AC50 cell viability of 0.525 µM. For the same molecule, in the test with HCT116 [2], the efficacy was -77%.

`CN1CCN(C(=O)c2ccc3cc(CCNc4ncnc5ccc(C#N)cc45)ccc3c2)CC1` [Senexin-B]: in the test on HCT116 [1], the AC50 cell viability was 13.2 µM. Further, in the test on HCT116 [2], the efficacy was -72.9%.

On to `C=C1/C(=C/C=C2\CCCC3(C)[C@@H]([C@H](C)/C=C/C=C/C(O)(CC)CC)CC[C@@H]23)C[C@@H](O)C[C@@H]1O` (stereo not given in full) [Seocalcitol], for which, in the test on HCT116 [1], the AC50 cell viability was 18.6 µM. In addition, the efficacy in the test with HCT116 [2] was -31.2%.

In the test with HCT116 [1], `COCCn1c2c([n+](Cc3cnccn3)c1C)C(=O)c1ccccc1C2=O` [Sepantronium bromide] showed an AC50 cell viability of 0.00833 µM. The efficacy in the test with HCT116 [2] is -93.8%.

`Nc1nc2cc(-c3ccc4ncc(C(=O)N5CCOCC5)n4c3)ccc2o1` [Serabelisib] had an AC50 cell viability in the test on HCT116 [1] of 4.68 µM. Besides, the efficacy in the test with HCT116 [2] was -53.2%.

In the case of `c1ccc2c(CCNc3ccc(Nc4ccncc4)cc3)c[nH]c2c1` [Serdemetan], the AC50 cell viability in the test with HCT116 [1] worked out at 5.9 µM. For the same molecule, the efficacy in the test on HCT116 [2] was -89.6%.

Molecule `CN[C@H]1CC[C@@H](c2ccc(Cl)c(Cl)c2)c2ccccc21` [Sertraline hydrochloride] showed an AC50 cell viability with HCT116 [1] of 20.9 µM. Moreover, the efficacy in the test on HCT116 [2] was -98.8%.

In the test on HCT116 [1], `O=C(O)c1ccc2c(c1)nc(Nc1cccc(Cl)c1)c1ccncc12` [Silmitasertib] displayed an AC50 cell viability of 5.9 µM. In addition, in the test with HCT116 [2], the efficacy is -87.1%.

In the test with HCT116 [1], `CN1CCN(c2ncc(-c3cc(Cl)cc(Cl)c3Cl)c(N)n2)CC1` [Sipatrigine] had an AC50 cell viability of 18.6 µM. In addition, the efficacy in the test with HCT116 [2] was -74.6%.

Turning to `COCCNCc1ccc(-c2cc3nccc(Oc4ccc(NC(=O)C5(C(=O)Nc6ccc(F)cc6)CC5)cc4F)c3s2)nc1` [Sitravatinib], the AC50 cell viability in the test on HCT116 [1] came to 6.61 µM. For the same molecule, the efficacy in the test on HCT116 [2] is -104%.

Turning to `Cc1c(C(=O)Nc2ccc(N3C[C@@H](C)O[C@@H](C)C3)nc2)cccc1-c1ccc(OC(F)(F)F)cc1` [Sonidegib], the AC50 cell viability in the test on HCT116 [1] amounted to 20.9 µM. The efficacy with HCT116 [2] was -74.9%.

Molecule `CNC(=O)c1cc(Oc2ccc(NC(=O)Nc3ccc(Cl)c(C(F)(F)F)c3)cc2)ccn1` [Sorafenib] displayed an AC50 cell viability in the test on HCT116 [1] of 9.34 µM. Moreover, the efficacy in the test with HCT116 [2] is -95%.

For the molecule `CN1CCN(CC1)C2=NC3=C(C=CC=C3)C(=N2)C/4=C(/C(=O)NC4=O)C5=C[NH]C6=C5C=CC=C6` [Sotrastaurin], in the test with HCT116 [1], the AC50 cell viability is 23.5 µM. In the test on HCT116 [2], the efficacy is -83.5%.

As for `Fc1ccc(CNc2ncnc3ccc(F)cc23)cc1` [Spautin-1], the AC50 cell viability with HCT116 [1] turned out to be 1.48 µM. In the test on HCT116 [2], the efficacy is -34.2%.

In the test with HCT116 [1], `C=CC(=O)Nc1cccc(Nc2nc(Nc3ccc(OCCOC)cc3)ncc2F)c1` [Spebrutinib (AVL-292)] returned an AC50 cell viability of 14.8 µM. The efficacy in the test with HCT116 [2] is -107%.

Consider `NCCCCNCCCN` [Spermidine], for which the AC50 cell viability with HCT116 [1] was 23.5 µM. Further, in the test with HCT116 [2], the efficacy is -78.6%.

Turning to `CO[C@@H]1C(N(C)C(=O)c2ccccc2)C[C@H]2O[C@]1(C)n1c3ccccc3c3c4c(c5c6ccccc6n2c5c31)C(=O)NC4=O` (stereo not given in full) [Stauprimide], the AC50 cell viability with HCT116 [1] was 1.66 µM. Also, the efficacy with HCT116 [2] was -50%.

The molecule `CN[C@@H]1C[C@H]2O[C@@](C)([C@@H]1OC)n1c3ccccc3c3c4c(c5c6ccccc6n2c5c31)C(=O)NC4` [Staurosporine] gave an AC50 cell viability in the test on HCT116 [1] of 0.0468 µM. Besides, in the test on HCT116 [2], the efficacy is -89.4%.

As to `CC(C)n1cnc2c(NCCc3ccc(O)cc3)nc(-c3csc4ccccc34)nc21` [StemRegenin 1], the AC50 cell viability with HCT116 [1] was determined as 18.6 µM. Besides, in the test on HCT116 [2], the efficacy was -91.3%.

Consider `C[C@@H]1O[C@@H](O[C@H]2C[C@@H](O)[C@]3(CO)[C@H]4[C@H](O)C[C@]5(C)[C@H](CC[C@]5(O)[C@@H]4CC[C@]3(O)C2)C/6=C/C(=O)OC6)[C@H](O)[C@H](O)[C@H]1O` [Strophantine octahydrate], for which the AC50 cell viability in the test on HCT116 [1] was 0.0263 µM. Also, the efficacy in the test with HCT116 [2] was -75.8%.

The molecule `CONC(=O)Nc1ccc(-c2sc3c(c2CN(C)Cc2ccccc2)c(=O)n(-c2ccccc2)c(=O)n3Cc2c(F)cccc2F)cc1` [Sufugolix] had an AC50 cell viability in the test with HCT116 [1] of 16.6 µM. Moreover, the efficacy with HCT116 [2] was -35.8%.

Molecule `Cc1cc2cc(Oc3ccnc(Nc4cccc(C[S+](=O)([O-])NCCN(C)C)c4)n3)ccc2[nH]1` [Sulfatinib] came in with an AC50 cell viability in the test on HCT116 [1] of 11.8 µM. For the same molecule, in the test with HCT116 [2], the efficacy was -101%.

The molecule `CCN(CC)CCNC(=O)c1c(C)[nH]c(/C=C2\C(=O)Nc3ccc(F)cc32)c1C` [Sunitinib malate] displayed an AC50 cell viability with HCT116 [1] of 3.32 µM. Further, in the test on HCT116 [2], the efficacy is -98.2%.

Take `Fc1ccc(-c2nc(-c3ccccc3F)[nH]c2-c2ccncc2)cc1` [TA02]: in the test on HCT116 [1], the AC50 cell viability came to 16.6 µM. Further, the efficacy in the test on HCT116 [2] was -48.4%.

In the case of `COc1cc(N2CCC(N3CCN(C)CC3)CC2)ccc1Nc1ncc(Cl)c(Nc2ccccc2[S+](=O)([O-])C(C)C)n1` [TAE-684], the AC50 cell viability in the test with HCT116 [1] was 1.18 µM. The efficacy in the test with HCT116 [2] was -110%.

On to `CC(C)(O)CC(=O)NCCn1ccc2ncnc(Nc3ccc(Oc4cccc(C(F)(F)F)c4)c(Cl)c3)c21` [TAK-285], for which the AC50 cell viability in the test with HCT116 [1] is 16.6 µM. Besides, the efficacy in the test on HCT116 [2] was -101%.

`Cc1cc(C(=O)Nc2cc(Oc3ccc4nc(NC(=O)C5CC5)cn4n3)ccc2C)n(C)n1` [TAK-593]: the AC50 cell viability in the test with HCT116 [1] is 14.8 µM. The efficacy in the test with HCT116 [2] was -56.7%.
